Source: article PMC12373499 (Nature Metabolism, 2025)
Where “and” joins values, the source holds several entries; their conditions need not be identical. Identical values can stand only once. Like-named read-outs stand apart in the source and are kept apart here. Blank lines part the entries; values can stand above or below the compound they belong to. *1 amine or outer side, *2 acyl side, *3 side chain or, on linkers, in order; H or OH if unused. Where a SMILES comes first, the peptide text is derived from it. Side-chain parts run from the residue outwards. [ ]: non-standard residue; d: D form. The star is where a group is joined. X1 = CN1C(=CC=CC=CC2=[N+](CCCCCC(=O)NCCN3C(=O)CC(*)C3=O)c3ccccc3C2(C)C)C(C)(C)c2ccccc21; X2 = CN1C(=CC=CC2=[N+](CCCCCC(=O)NCCN3C(=O)CC(*)C3=O)c3ccccc3C2(C)C)C(C)(C)c2ccccc21; C20 diacid = O=C(O)CCCCCCCCCCCCCCCCCCC(=O)*; γGlu = O=C(O)[C@H](CCC(=O)[*:2])N[*:1]; AEEA = NCCOCCOCC(=O)O; Aib = CC(C)(N)C(=O)O

Legend:
[1] = molecular target: Nluc-tagged human GIPR (human) (UniProt P48546); assay: FRET or BRET
[2] = molecular target: Nluc-tagged human GLP1R (human) (UniProt P43220); assay: FRET or BRET
[3] = molecular target: human GIPR (Nluc-GIPR) (human) (UniProt P48546); assay: FRET or BRET; NanoBRET saturation binding on HEK293T cells transiently expressing Nluc-GLP1R or Nluc-GIPR; PBS with 0.1% BSA and 0.01% NanoGlo; daLUXendin added over a range of concentrations, without or with 1 uM GIP and 1 uM Exendin-9 to determine specific binding; fit 'One Site - Specific Binding'
[4] = molecular target: human GLP1R (Nluc-GLP1R) (human) (UniProt P43220); assay: as above
[5] = molecular target: human GIPR (Nluc-GIPR) (human) (UniProt P48546); assay: as above; remark: listed apart in the source
[6] = molecular target: human GLP1R (Nluc-GLP1R) (human) (UniProt P43220); assay: as above; remark: listed apart in the source
Nluc–GIPR (hGIPR) = molecular target: T1, Nluc–GIPR (hGIPR) (Homo sapiens, UniProt P48546); assay: NanoBRET saturation binding assay, HEK293T cells
T1 construct: expressed in transfected cells; host or cells: HEK293T cells, transient expression
T1 sequence (P48546 22-466): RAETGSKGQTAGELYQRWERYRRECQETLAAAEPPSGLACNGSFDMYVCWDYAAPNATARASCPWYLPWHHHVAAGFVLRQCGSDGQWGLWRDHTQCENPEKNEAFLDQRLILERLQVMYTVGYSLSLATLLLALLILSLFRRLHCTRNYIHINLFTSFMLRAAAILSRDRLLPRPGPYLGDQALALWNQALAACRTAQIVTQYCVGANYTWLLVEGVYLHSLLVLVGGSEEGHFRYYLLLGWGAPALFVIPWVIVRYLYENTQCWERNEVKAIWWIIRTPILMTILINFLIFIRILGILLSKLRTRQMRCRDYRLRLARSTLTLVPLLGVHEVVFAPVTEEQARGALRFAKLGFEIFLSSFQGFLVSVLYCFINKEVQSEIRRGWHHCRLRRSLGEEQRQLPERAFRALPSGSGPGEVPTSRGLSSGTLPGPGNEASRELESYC
Procedure: (§1) HEK293T cells (RRID:CVCL_0063) were cultured in DMEM/F12 GlutaMAX (ThermoFisher), supplemented with 10% FBS and 1% antibiotic-antimycotic solution and cultured at 37 °C, 5% CO2. HEK293T cells were authenticated at source using STR profiling. […] Media was then removed and the cells were incubated in PBS supplemented with 0.1% BSA and 0.01% NanoGlo (Promega). […] Plates were read using a PheraSTAR microplate reader, using the NanoBRET filter module. BRET ratios (λacceptor/λdonor) were calculated, and saturation data fit using the ‘One Site – Specific Binding’ equation of GraphPad Prism 10. Competition binding was fit using the ‘One Site – Fit Ki’ equation.

Nluc–GLP1R (hGLP1R) = molecular target: T2, Nluc–GLP1R (hGLP1R) (Homo sapiens, UniProt P43220); assay: NanoBRET saturation binding assay, HEK293T cells
T2 construct: expressed in transfected cells; host or cells: HEK293T cells, transient expression
Procedure: as §1

mGIPR = molecular target: T3, mGIPR (Mus musculus, UniProt Q0P543); assay: HTRF cAMP assay in transiently transfected AD293 cells; assay type: cell-based; conditions: based upon cAMP assays and binding affinity
T3 construct: expressed in transfected cells; host or cells: AD293 cells, transient transfection (Lipofectamine 2000)
T3 sequence (Q0P543 19-460): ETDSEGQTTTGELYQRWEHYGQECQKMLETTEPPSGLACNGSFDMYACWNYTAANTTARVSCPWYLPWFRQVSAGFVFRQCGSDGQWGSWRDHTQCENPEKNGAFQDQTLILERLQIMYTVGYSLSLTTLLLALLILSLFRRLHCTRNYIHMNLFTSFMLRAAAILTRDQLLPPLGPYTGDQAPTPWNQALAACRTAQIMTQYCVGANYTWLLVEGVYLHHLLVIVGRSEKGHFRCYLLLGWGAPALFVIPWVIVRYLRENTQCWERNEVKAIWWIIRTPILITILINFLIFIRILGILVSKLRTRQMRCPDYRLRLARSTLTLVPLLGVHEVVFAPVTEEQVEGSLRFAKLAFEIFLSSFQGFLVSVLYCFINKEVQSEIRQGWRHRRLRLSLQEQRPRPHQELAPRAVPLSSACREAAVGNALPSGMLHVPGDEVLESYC
Procedure: AD293 cells (RRID:CVCL_9804) were transiently transfected 24 h before the assay in six-well plates with plasmids encoding wild-type hGLP1R, mGLP1R, hGIPR or mGIPR using Lipofectamine 2000. AD293 cells were authenticated at source using STR profiling. Cells were detached and treated with a range of agonist concentrations in serum-free DMEM + 0.1% BSA for 30 min at 37 °C in 96-well plates, followed by the addition of lysis buffer 2 (Cisbio) at a 1:2 ratio. Lysates were further diluted 1:10 to avoid spectral interference from the higher concentrations of fluorescent ligands in the HTRF assay, and the concentration of cAMP was determined after the addition of cAMP Dynamic detection reagents (Cisbio).

mouse islets = assay: Colocalization (Manders' coefficient) of probes in mouse islets; assay type: cell-based; conditions: WT islets live, TzCy3 500nM + LUX645 100nM
Procedure: (§2) Probe labelling was analysed using corrected total cell fluorescence, which is integrated density − (area of selected cell × mean fluorescence of background readings)[52],[53]. Colocalization was determined using Manders’ coefficient, which calculates the proportion of pixels in one channel that also show intensity from both channels. Full width at half maximum was used to analyse labelling patterns at the membrane versus cytoplasm. All analyses were performed in ImageJ (NIH), with brightness and contrast linearly adjusted across the entire image for presentation purposes and applied equally between all states under examination.

GLP1R^KO/KO islets = assay: Probe labelling of GLP1R^KO/KO islets; assay type: cell-based, mouse; conditions: for CTCF values of daLUXendin544: individual values
Procedure: Mice were humanely killed using a schedule-1 method, and the common bile duct was injected with Serva NB8 (1 mg ml^−1) collagenase. The inflated pancreas was dissected, and islets were isolated using Histopaque-1119 and 1083 (Sigma-Aldrich) gradients and cultured at 37 °C, 5% CO2 in RPMI supplemented with 10% FBS (Gibco), 100 units per ml penicillin and 100 μg ml^−1 streptomycin. Islets were used up to 4 days after isolation.
as §2

human GLP1R (Nluc-GLP1R) (human), sequence (P43220 24-463): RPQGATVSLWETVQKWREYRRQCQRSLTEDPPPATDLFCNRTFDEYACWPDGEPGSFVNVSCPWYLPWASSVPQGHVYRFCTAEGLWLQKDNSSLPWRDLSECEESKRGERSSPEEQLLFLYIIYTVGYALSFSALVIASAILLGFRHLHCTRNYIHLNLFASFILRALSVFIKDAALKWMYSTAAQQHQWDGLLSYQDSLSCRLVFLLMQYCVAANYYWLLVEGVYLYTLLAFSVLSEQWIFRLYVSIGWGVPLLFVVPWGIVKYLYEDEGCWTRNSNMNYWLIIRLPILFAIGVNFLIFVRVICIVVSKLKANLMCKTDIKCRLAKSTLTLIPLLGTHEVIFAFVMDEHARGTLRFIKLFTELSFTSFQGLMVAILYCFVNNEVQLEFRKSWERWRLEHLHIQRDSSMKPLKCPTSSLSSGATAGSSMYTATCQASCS
Nluc-tagged human GLP1R (human), sequence (P43220 24-463): as above
T2 sequence (P43220 24-463): as above

- Kd [1]: 8.7 nM
- Kd [2]: 2.18 nM
- Kd [3]: 10.2 nM and 4.22 nM and 7.41 nM
Compound: daLUXendin660 (peptide)

- Kd [1]: 6.46 nM
- Kd [2]: 1.38 nM
- Kd [3]: 12.2 nM and 10.7 nM and 14.1 nM
- Kd [4]: 2.14 nM and 1.77 nM and 3.89 nM
- Kd [5]: 6.46 nM
- Kd [6]: 1.38 nM
Compound: daLUXendin660+ (peptide)

Compound: CC[C@H](C)[C@H](NC(=O)[C@H](CC(C)C)NC(=O)[C@H](Cc1c[nH]c2ccccc12)NC(=O)[C@H](CCC(N)=O)NC(=O)[C@@H](NC(=O)[C@H](Cc1ccccc1)NC(=O)[C@H](C)NC(=O)[C@H](CCCCNC(=O)COCCOCCNC(=O)COCCOCCNC(=O)CC[C@H](NC(=O)CCCCCCCCCCCCCCCCCCC(=O)O)C(=O)O)NC(=O)[C@H](CCC(N)=O)NC(=O)[C@H](C)NC(=O)[C@@H](NC(=O)[C@H](CCCCN)NC(=O)[C@H](CC(=O)O)NC(=O)[C@H](CC(C)C)NC(=O)C(C)(C)NC(=O)[C@@H](NC(=O)[C@H](CO)NC(=O)[C@H](Cc1ccc(O)cc1)NC(=O)[C@H](CC(=O)O)NC(=O)[C@H](CO)NC(=O)[C@@H](NC(=O)[C@H](Cc1ccccc1)NC(=O)[C@@H](NC(=O)CNC(=O)[C@H](CCC(=O)O)NC(=O)C(C)(C)NC(=O)[C@@H](N)Cc1ccc(O)cc1)[C@@H](C)O)[C@@H](C)O)[C@@H](C)CC)[C@@H](C)CC)C(C)C)C(=O)N[C@@H](C)C(=O)NCC(=O)NCC(=O)N1CCC[C@H]1C(=O)N[C@@H](CO)C(=O)N[C@@H](CO)C(=O)NCC(=O)N[C@@H](C)C(=O)N1CCC[C@H]1C(=O)N1CCC[C@H]1C(=O)N1CCC[C@H]1C(=O)N[C@@H](CSC1CC(=O)N(CCNC(=O)CCCCC[N+]2=C(C=CC=CC=C3N(C)c4ccccc4C3(C)C)C(C)(C)c3ccccc32)C1=O)C(N)=O (stereo partly drawn) [daLUXendin660+] (H-Y[Aib]EGTFTSDYSI[Aib]LDKIAQK([AEEA-AEEA-γGlu-C20 diacid])AFVQWLIAGGPSSGAPPPC(X1)-NH2)
- Bmax best-fit (nM), hGIPR (Nluc–GIPR (hGIPR); Nluc-tagged hGIPR, NanoBRET saturation, n = 3 independent repeats): 0.02314 nM
- Bmax (Nluc–GIPR (hGIPR); hGIPR, nonlin fit, One site -- Specific binding, best-fit value of pooled data): 0.02314
- Bmax best-fit (nM), hGLP1R (Nluc–GLP1R (hGLP1R); Nluc-tagged hGLP1R, NanoBRET saturation, n = 3 independent repeats): 0.03361 nM
- Bmax (Nluc–GLP1R (hGLP1R); hGLP1R, nonlin fit, One site -- Specific binding, best-fit value of pooled data): 0.03361

Compound: CC[C@H](C)[C@H](NC(=O)[C@H](CC(C)C)NC(=O)[C@H](Cc1c[nH]c2ccccc12)NC(=O)[C@H](CCC(N)=O)NC(=O)[C@@H](NC(=O)[C@H](Cc1ccccc1)NC(=O)[C@H](C)NC(=O)[C@H](CCCCN)NC(=O)[C@H](CCC(N)=O)NC(=O)[C@H](C)NC(=O)[C@@H](NC(=O)[C@H](CCCCN)NC(=O)[C@H](CC(=O)O)NC(=O)[C@H](CC(C)C)NC(=O)C(C)(C)NC(=O)[C@@H](NC(=O)[C@H](CO)NC(=O)[C@H](Cc1ccc(O)cc1)NC(=O)[C@H](CC(=O)O)NC(=O)[C@H](CO)NC(=O)[C@@H](NC(=O)[C@H](Cc1ccccc1)NC(=O)[C@@H](NC(=O)CNC(=O)[C@H](CCC(=O)O)NC(=O)C(C)(C)NC(=O)[C@@H](N)Cc1ccc(O)cc1)[C@@H](C)O)[C@@H](C)O)[C@@H](C)CC)[C@@H](C)CC)C(C)C)C(=O)N[C@@H](C)C(=O)NCC(=O)NCC(=O)N1CCC[C@H]1C(=O)N[C@@H](CO)C(=O)N[C@@H](CO)C(=O)NCC(=O)N[C@@H](C)C(=O)N1CCC[C@H]1C(=O)N1CCC[C@H]1C(=O)N1CCC[C@H]1C(=O)N[C@@H](CSC1CC(=O)N(CCNC(=O)CCCCC[N+]2=C(C=CC=C3N(C)c4ccccc4C3(C)C)C(C)(C)c3ccccc32)C1=O)C(N)=O (stereo partly drawn) [daLUXendin544] (H-Y[Aib]EGTFTSDYSI[Aib]LDKIAQKAFVQWLIAGGPSSGAPPPC(X2)-NH2)
- selectivity for mouse GLP1R over GIPR compared to tirzepatide (mGIPR): approximately fourfold less selectivity
- M1, daLUXendin544 vs LUXendin645 (mouse islets; image 1): 0.917
- M2, daLUXendin544 vs LUXendin645 (mouse islets; image 1): 0.994
- Manders' R, daLUXendin544 vs LUXendin645 (mouse islets; image 1): 0.852
- Pearson's, daLUXendin544 vs LUXendin645 (mouse islets; image 1): 0.83
- M1, daLUXendin544 vs LUXendin645 (mouse islets; image 2): 0.927
- M2, daLUXendin544 vs LUXendin645 (mouse islets; image 2): 0.996
- Manders' R, daLUXendin544 vs LUXendin645 (mouse islets; image 2): 0.744
- Pearson's, daLUXendin544 vs LUXendin645 (mouse islets; image 2): 0.679
- M1, daLUXendin544 vs LUXendin645 (mouse islets; image 3): 0.956
- M2, daLUXendin544 vs LUXendin645 (mouse islets; image 3): 0.995
- Manders' R, daLUXendin544 vs LUXendin645 (mouse islets; image 3): 0.727
- Pearson's, daLUXendin544 vs LUXendin645 (mouse islets; image 3): 0.616
- CTCF values of daLUXendin544 (GLP1R^KO/KO islets; GLP1R-/- + GIP): 466750 and 425691 and 412346 and 398972 and 803260 and 1574894 and 1388527 and 1122278 and 848564 and 323100 and 555998 and 554147 and 545690
- CTCF values of daLUXendin544 (GLP1R^KO/KO islets; GLP1R-/-): 1138974 and 1525024 and 2200632 and 868278 and 1499758 and 2095767 and 1136530 and 1464030 and 649874 and 1541507 and 604319 and 865421
- CTCF values of daLUXendin544 (GLP1R^KO/KO islets; GLP1RWT/WT): 3434876 and 3087793 and 4777725 and 2187512 and 1805461 and 1906480 and 1520223 and 2186271 and 2694391 and 5360897 and 5342379 and 1938584 and 1738950
- reduction of labelling in GLP1R^KO/KO islets (GLP1R^KO/KO islets; versus wild-type islets): ~ 50%
